{"source": "ChEMBL document CHEMBL1147315", "about": "“A new spermatostatic glycoside from the soft coral Sinularia crispa” (J Nat Prod, 1989)", "system": "Spermatozoa", "test": "Spermatostatic activity in rat cauda epididymal spermatozoa assessed as motility effect at 0.5 mg/mL for 30 mins by microscopic method", "assay_type": "functional, cell-based", "note": "Active and inactive are the calls of the source. The rule behind the calls is not given here."}
{"smiles": "C=C(CC[C@@H](C)[C@H]1[C@@H](O)C[C@H]2[C@@H]3[C@@H](O)C=C4C[C@@H](O[C@@H]5O[C@@H](C)[C@@H](OC(C)=O)[C@@H](O)[C@@H]5O)CC[C@]4(C)[C@H]3CC[C@]12C)C(C)C", "values": [{"measurement": "Activity", "result": "Active"}]}
